Measured values: patent US20160313301A1, “METHOD FOR PREDICTING ANTITUMOR EFFICACY OF HSP90 INHIBITOR IN CANCER TREATMENT” (NIPPON KAYAKU KABUSHIKI KAISHA, priority 2013, published 2016)
“Also recorded” adds a separate entry of the source.

Experiments:
Assay type in all cases: in vivo
[1] = system: human ovarian cancer cells SK-OV-3; test: Anti-tumor test in mice transplanted subcutaneously with tumor (SK-OV-3); details: SK-OV-3 s.c. in mice
Protocol: (§1) Human ovarian cancer cell lines OC-10-JCK, OC-11-JCK, and TOGY-18, and a human breast cancer cell line MC-19-JCK were obtained from Central Institute for Experimental Animals. Cryopreserved tumor pieces were thawed, and then OC-10-JCK, OC-11-JCK, and MC-19-JCK were transplanted subcutaneously to SCID mice, while TOGY-18 was transplanted subcutaneously to nude mice. After the tumors were grown, the tumors were removed and cut into tumor pieces. The tumor pieces were transplanted subcutaneously to SCID mice or nude mice with trocars. The tumors were maintained by repeated transplantation in the same manner as described above to prepare tumors to be transplanted. Human ovarian cancer cell lines ES-2, SK-OV-3, OV-90, and TOV-21G, and a human lung cancer cell line NCI-H1975 were obtained from American Type Culture Collection (ATCC). The SK-OV-3 and NCI-H1975 cell lines were grown in recommended culture media, of which about 1×10^7 cells were suspended into HBSS and then injected subcutaneously to SCID mice. After the cells formed tumors, the tumors were removed and cut into tumor pieces. The tumor pieces were transplanted subcutaneously to SCID mice with trocars. The tumors were maintained by repeated transplantation in the same manner as described above to prepare tumors to be transplanted. […]

[2] = system: human ovarian cancer cells TOV-21G; test: Anti-tumor test in mice transplanted subcutaneously with tumor (TOV-21G); details: TOV-21G s.c. in mice
Protocol: as §1

[3] = system: human ovarian cancer cell line ES-2; test: Anti-tumor test in mice transplanted subcutaneously with tumor (ES-2); details: ES-2 s.c. in mice
Protocol: as §1

[4] = system: human ovarian cancer cells OV-90; test: Anti-tumor test in mice transplanted subcutaneously with tumor (OV-90); details: OV-90 s.c. in mice
Protocol: as §1

[5] = system: human ovarian cancer cells OVCAR-3; test: Anti-tumor test in mice transplanted subcutaneously with tumor (OVCAR-3)
[6] = system: human ovarian cancer cells OC-11-JCK; test: Anti-tumor test in mice transplanted subcutaneously with tumor (OC-11-JCK); details: OC-11-JCK s.c. in mice; 40 mg/kg tail vein three times at 4 day intervals
Protocol: as §1

[7] = system: human ovarian cancer cells TOGY-18; test: Anti-tumor test in mice transplanted subcutaneously with tumor (TOGY-18); details: TOGY-18 s.c. in mice; 40 mg/kg tail vein three times at 4 day intervals
Protocol: as §1

[8] = system: human ovarian cancer cells OC-11-JCK/CDDP; test: Anti-tumor test in mice transplanted subcutaneously with tumor (OC-11-JCK/CDDP); details: OC-11-JCK/CDDP s.c. in mice; 40 mg/kg tail vein three times at 4 day intervals
Protocol: as §1

[9] = system: human ovarian cancer cell line OC-10-JCK; test: Anti-tumor test in mice transplanted subcutaneously with tumor (OC-10-JCK); details: OC-10-JCK s.c. in mice; 40 mg/kg tail vein three times at 4 day intervals
Protocol: as §1

[10] = system: human ovarian cancer cells 2008; test: Anti-tumor test in mice transplanted subcutaneously with tumor (2008); details: 2008 s.c. in mice
Protocol: as §1

[11] = system: human ovarian cancer cells OC-11-JCK/PTX; test: Anti-tumor test in mice transplanted subcutaneously with tumor (OC-11-JCK/PTX); details: OC-11-JCK/PTX s.c. in mice
Protocol: Human ovarian cancer cell lines OC-10-JCK, OC-11-JCK, and TOGY-18, and a human breast cancer cell line MC-19-JCK were obtained from Central Institute for Experimental Animals. Cryopreserved tumor pieces were thawed, and then OC-10-JCK, OC-11-JCK, and MC-19-JCK were transplanted subcutaneously to SCID mice, while TOGY-18 was transplanted subcutaneously to nude mice. After the tumors were grown, the tumors were removed and cut into tumor pieces. The tumor pieces were transplanted subcutaneously to SCID mice or nude mice with trocars. The tumors were maintained by repeated transplantation in the same manner as described above to prepare tumors to be transplanted. Human ovarian cancer cell lines ES-2, SK-OV-3, OV-90, and TOV-21G, and a human lung cancer cell line NCI-H1975 were obtained from American Type Culture Collection (ATCC). The SK-OV-3 and NCI-H1975 cell lines were grown in recommended culture media, of which about 1×10^7 cells were suspended into HBSS and then injected subcutaneously to SCID mice. After the cells formed tumors, the tumors were removed and cut into tumor pieces. The tumor pieces were transplanted subcutaneously to SCID mice with trocars. The tumors were maintained by repeated transplantation in the same manner as described above to prepare tumors to be transplanted. The OV-90 cell line was grown in a recommended culture medium, of which about 1×10^6 cells were suspended into HBSS and then injected subcutaneously to SCID mice. After the cells formed a tumor, the tumor was subjected to an anti-tumor test. The TOV-21G cell line was grown in a recommended culture medium, of which about 1×10^7 cells were suspended into HBSS and then injected subcutaneously to SCID mice. After the cells formed a tumor, the tumor was subjected to the anti-tumor test. The ES-2 cell line was grown in a recommended culture medium, suspended into HBSS, and then injected subcutaneously to nude mice. After the cells formed a tumor, the tumor was removed and cut into tumor pieces. The tumor pieces were transplanted subcutaneously to nude mice with a trocar. […]

[12] = system: human ovarian cancer cells SHIN-3; test: Anti-tumor test in mice transplanted subcutaneously with tumor (SHIN-3); details: SHIN-3 s.c. in mice
Protocol: as §1

[13] = system: human breast cancer cells MC-19-JCK; test: Anti-tumor test in mice transplanted subcutaneously with tumor (MC-19-JCK); details: MC-19-JCK s.c. in mice; administered once at 40 mg/kg
Protocol: as §1

[14] = system: human breast cancer cells JIMT-1; test: Anti-tumor test in mice transplanted subcutaneously with tumor (JIMT-1); details: JIMT-1 s.c. in mice; 40 mg/kg three times at 7 day intervals
Protocol: as §1

[15] = system: human lung cancer cells NCI-H1975; test: Anti-tumor test in mice transplanted subcutaneously with tumor (NCI-H1975); details: NCI-H1975 s.c. in mice; 40 mg/kg three times at 7 day intervals
Protocol: as §1

[16] = 40 mg/kg tail vein three times at 4 day intervals

Q: With `CC(C)c1cc(-c2n[nH]c(=O)n2-c2ccc(CN3CCN(C)CC3)cc2)c(O)cc1O` [A-1, 5-(2,4-dihydroxy-5-isopropyl-phenyl)-4-[4-(4-methyl-piperazin-1-ylmethyl)-phenyl]-2,4-dihydro-[1,2,4]triazol-3-one] as the compound, how does the “anti-tumor effect (in words)” value [1] read?
A: relatively highly effective

Q: And the “T/C % (lowest value from the beginning to the 21st day of administration)” value [1, 16]?
A: 3.0%

Q: What about the “anti-tumor effect (in words)” value [2] of the same compound?
A: relatively highly effective

Q: And the “T/C % (lowest value from the beginning to the 21st day of administration)” value [2, 16]?
A: 25.0%

Q: What about the “anti-tumor effect (in words)” value [3] of the same compound?
A: relatively highly effective

Q: And the “T/C % (lowest value from the beginning to the 21st day of administration)” value [3, 16]?
A: 25.6%

Q: And the “anti-tumor effect (in words)” value [4]?
A: relatively highly effective

Q: What about the “T/C % (lowest value from the beginning to the 21st day of administration)” value [4, 16] of the same compound?
A: 30.4%

Q: And the “T/C % (lowest value from the beginning to the 21st day of administration)” value ([5]; OVCAR-3 s.c. in NOD/SCID mice, 40 mg/kg tail vein three times at 4 day intervals)?
A: 34.9%

Q: What about the “anti-tumor effect (in words)” value ([5]; OVCAR-3 s.c. in mice) of the same compound?
A: relatively highly effective

Q: And the “T/C % (lowest value from the beginning to the 21st day of administration)” value [6]?
A: 36.0%

Q: What about the “T/C % (lowest value from the beginning to the 21st day of administration)” value [7] of the same compound?
A: 45.2%

Q: What about the “T/C % (lowest value from the beginning to the 21st day of administration)” value [8] of the same compound?
A: 46.4%

Q: What about the “T/C % (lowest value from the beginning to the 21st day of administration)” value [9] of the same compound?
A: 50.2%

Q: What about the “anti-tumor effect (in words)” value [10] of the same compound?
A: lowly effective

Q: What about the “T/C % (lowest value from the beginning to the 21st day of administration)” value [10, 16] of the same compound?
A: 51.7%

Q: And the “anti-tumor effect (in words)” value [11]?
A: hardly effective; also recorded: lowly effective

Q: And the “T/C % (lowest value from the beginning to the 21st day of administration)” value [11, 16]?
A: 62.4%

Q: And the “anti-tumor effect (in words)” value [12]?
A: hardly effective; also recorded: lowly effective

Q: What about the “T/C % (lowest value from the beginning to the 21st day of administration)” value [12, 16] of the same compound?
A: 78.1%

Q: What about the “T/C % (lowest value from the beginning to the 21st day of administration)” value [13] of the same compound?
A: 5.2%

Q: And the “T/C % (lowest value from the beginning to the 21st day of administration)” value [14]?
A: 34.9%

Q: What about the “T/C % (lowest value from the beginning to the 21st day of administration)” value [15] of the same compound?
A: 49.4%
